How the values were obtained:
[1] = test system: cocklebur; test: Test B pre/postemergence cocklebur; type: in vivo, Xanthium strumarium
Procedure, shortened: (§1)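 Test chemicals in a non-phytotoxic solvent mixture with surfactant were sprayed preemergence onto planted seeds and postemergence onto plants 2 to 18 cm tall (1- to 4-leaf stage). After twelve to sixteen days in a greenhouse, injury was visually rated against untreated controls from 0 (no effect) to 10 (complete control).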

[2] = test system: rape; test: Test B pre/postemergence rape; type: in vivo, Brassica napus
Procedure, shortened: as §1

[3] = test system: wild oat; test: Test B pre/postemergence wild oat; type: in vivo, Avena fatua
Procedure, shortened: as §1

[4] = test system: giant foxtail; test: Test B pre/postemergence giant foxtail; type: in vivo, Setaria faberii
Procedure, shortened: as §1

[5] = test system: pigweed; test: Test B pre/postemergence pigweed; type: in vivo, Amaranthus retroflexus
Procedure, shortened: as §1

[6] = test system: soybean; test: Test B pre/postemergence soybean; type: in vivo, Glycine max
Procedure, shortened: as §1

[7] = test system: crabgrass; test: Test B pre/postemergence crabgrass; type: in vivo, Digitaria sanguinalis
Procedure, shortened: as §1

[8] = test system: blackgrass; test: Test B pre/postemergence blackgrass; type: in vivo, Alopecurus myosuroides
Procedure, shortened: as §1

[9] = test system: purple nutsedge; test: Test B pre/postemergence purple nutsedge; type: in vivo, Cyperus rotundus
Procedure, shortened: as §1

[10] = test system: corn; test: Test B pre/postemergence corn; type: in vivo, Zea mays
Procedure, shortened: as §1

[11] = test system: velvetleaf; test: Test B pre/postemergence velvetleaf; type: in vivo, Abutilon theophrasti
Procedure, shortened: as §1

[12] = test system: sugar beet; test: Test B pre/postemergence sugar beet; type: in vivo, Beta vulgaris
Procedure, shortened: as §1

[13] = test system: morningglory; test: Test B pre/postemergence morningglory; type: in vivo, Ipomoea hederacea
Procedure, shortened: as §1

[14] = test system: surinam grass; test: Test B pre/postemergence surinam grass; type: in vivo, Brachiaria decumbens
Procedure, shortened: as §1

[15] = test system: wheat; test: Test B pre/postemergence wheat; type: in vivo, Triticum aestivum
Procedure, shortened: as §1

[16] = test system: bedstraw; test: Test B pre/postemergence bedstraw; type: in vivo, Galium aparine
Procedure, shortened: as §1

[17] = Preemergence, Rate 62 g/ha, scale of 0 to 10 where 0 is no effect and 10 is complete control
[18] = Preemergence, Rate 125 g/ha, scale of 0 to 10 where 0 is no effect and 10 is complete control
[19] = Preemergence, Rate 250 g/ha, scale 0 to 10 (0 no effect, 10 complete control)
[20] = Preemergence, Rate 500 g/ha, scale of 0 to 10 where 0 is no effect and 10 is complete control
[21] = Postemergence, Rate 62 g/ha, scale of 0 to 10, 0 is no effect, 10 is complete control
[22] = Postemergence, Rate 125 g/ha, scale 0 to 10, 0 is no effect, 10 is complete control
[23] = Postemergence, Rate 500 g/ha, scale 0 to 10, 0 is no effect, 10 is complete control
[24] = Preemergence, Rate 125 g/ha, scale 0 to 10, 0 is no effect, 10 is complete control
[25] = Rate 250 g/ha, Postemergence, scale of 0 to 10 where 0 is no effect and 10 is complete control
[26] = Preemergence, Rate 62 g/ha, scale 0 to 10 (0 no effect, 10 complete control)

SMILES: CCn1ncc(Cn2c(=O)on(C(=O)N(c3ccc(Cl)cc3)C(C)C)c2=O)c1Cl [Compound 684]
- Cocklebur plant response rating [1, 17]: 0
- Plant response rating, Cocklebur [1, 18]: 0
- Plant response rating, Cocklebur [1, 19]: 0
- Plant response rating, Cocklebur [1, 20]: 0
- Rape plant response rating [2, 17]: 0
- Plant response rating, Rape [2, 18]: 0
- Wild oats plant response rating [3, 17]: 0
- Plant response rating, Wild oats [3, 18]: 0
- Giant foxtail plant response rating [4, 17]: 7
- Plant response rating, Giant foxtail [4, 18]: 9
- Redroot pigweed plant response rating [5, 17]: 0
- Plant response rating, Redroot pigweed [5, 18]: 0
- Soybean plant response rating [6, 17]: 0
- Plant response rating, Soybean [6, 18]: 0
- Crabgrass plant response rating [7, 17]: 3
- Plant response rating, Crabgrass [7, 18]: 7
- Plant response rating, Crabgrass [7, 19]: 9
- Blackgrass plant response rating [8, 17]: 1
- Plant response rating, Blackgrass [8, 18]: 3
- Plant response rating, Blackgrass [8, 19]: 4
- Plant response rating, Blackgrass [8, 20]: 7
- Nutsedge plant response rating [9, 17]: 0
- Plant response rating, Nutsedge [9, 18]: 0
- Corn plant response rating [10, 17]: 0
- Plant response rating, Corn [10, 18]: 0
- Plant response rating, Corn [10, 19]: 0
- Velvetleaf plant response rating [11, 17]: 0
- Plant response rating, Velvetleaf [11, 18]: 0
- Sugarbeets plant response rating [12, 17]: 0
- Plant response rating, Sugarbeets [12, 18]: 0
- Morningglory plant response rating [13, 17]: 0
- Plant response rating, Morningglory [13, 18]: 0
- B. signalgrass plant response rating [14, 17]: 0
- Plant response rating, B. signalgrass [14, 18]: 0
- Plant response rating, B. signalgrass [14, 19]: 4
- Plant response rating, B. signalgrass [14, 20]: 5
- Wheat plant response rating [15, 17]: 0
- Plant response rating, Wheat [15, 18]: 0
- Bedstraw plant response rating [16, 17]: 0
- Plant response rating, Bedstraw [16, 18]: 0
- Plant response rating, Bedstraw [16, 19]: 0
- Plant response rating, Bedstraw [16, 20]: 0

SMILES: CC(C)N(C(=O)n1oc(=O)n(C(C)C(=O)c2ccccc2)c1=O)c1ccc(Cl)cc1 (stereo not drawn) [Compound 541]
- Cocklebur plant response rating [1, 21]: 0
- Cocklebur plant response rating [1, 22]: 0
- Plant response rating, Cocklebur [1, 23]: 5
- Cocklebur plant response rating [1, 24]: 0
- Plant response rating, Cocklebur [1, 25]: 5
- Rape plant response rating [2, 21]: 0
- Rape plant response rating [2, 22]: 0
- Plant response rating, Rape [2, 23]: 3
- Rape plant response rating [2, 26]: 0
- Rape plant response rating [2, 24]: 0
- Rape plant response rating (0 to 10 scale) ([2]; Preemergence, Rate 250 g/ha): 0
- Rape plant response rating [2, 20]: 0
- Plant response rating, Rape [2, 25]: 3
- Wild oats plant response rating [3, 21]: 0
- Wild oats plant response rating [3, 22]: 0
- Plant response rating, Wild oats [3, 23]: 2
- Wild oats plant response rating [3, 26]: 0
- Wild oats plant response rating [3, 24]: 0
- Wild oats plant response rating (0 to 10 scale) ([3]; Preemergence, Rate 250 g/ha): 5
- Wild oats plant response rating [3, 20]: 5
- Plant response rating, Wild oats [3, 25]: 0
- Giant foxtail plant response rating [4, 21]: 0
- Giant foxtail plant response rating [4, 22]: 0
- Plant response rating, Giant foxtail [4, 23]: 2
- Giant foxtail plant response rating [4, 26]: 7
- Giant foxtail plant response rating [4, 24]: 10
- Giant foxtail plant response rating (0 to 10 scale) ([4]; Preemergence, Rate 250 g/ha): 10
- Giant foxtail plant response rating [4, 20]: 10
- Plant response rating, Giant foxtail [4, 25]: 0
- Redroot pigweed plant response rating [5, 21]: 0
- Redroot pigweed plant response rating [5, 22]: 0
- Plant response rating, Redroot pigweed [5, 23]: 3
- Redroot pigweed plant response rating [5, 26]: 0
- Redroot pigweed plant response rating [5, 24]: 0
- Redroot pigweed plant response rating (0 to 10 scale) ([5]; Preemergence, Rate 250 g/ha): 0
- Redroot pigweed plant response rating [5, 20]: 0
- Plant response rating, Redroot pigweed [5, 25]: 0
- Soybean plant response rating [6, 21]: 0
- Soybean plant response rating [6, 22]: 0
- Plant response rating, Soybean [6, 23]: 2
- Soybean plant response rating [6, 26]: 0
- Soybean plant response rating [6, 24]: 0
- Soybean plant response rating (0 to 10 scale) ([6]; Preemergence, Rate 250 g/ha): 0
- Soybean plant response rating [6, 20]: 0
- Plant response rating, Soybean [6, 25]: 1
- Crabgrass plant response rating [7, 21]: 0
- Crabgrass plant response rating [7, 22]: 0
- Plant response rating, Crabgrass [7, 23]: 3
- Crabgrass plant response rating [7, 26]: 5
- Crabgrass plant response rating [7, 24]: 5
- Crabgrass plant response rating (0 to 10 scale) ([7]; Preemergence, Rate 250 g/ha): 10
- Crabgrass plant response rating [7, 20]: 10
- Plant response rating, Crabgrass [7, 25]: 0
- Blackgrass plant response rating [8, 21]: 0
- Blackgrass plant response rating [8, 22]: 0
- Plant response rating, Blackgrass [8, 23]: 0
- Blackgrass plant response rating [8, 26]: 0
- Blackgrass plant response rating [8, 24]: 0
- Blackgrass plant response rating (0 to 10 scale) ([8]; Preemergence, Rate 250 g/ha): 0
- Blackgrass plant response rating [8, 20]: 2
- Plant response rating, Blackgrass [8, 25]: 0
- Nutsedge plant response rating [9, 21]: 0
- Nutsedge plant response rating [9, 22]: 0
- Plant response rating, Nutsedge [9, 23]: 0
- Nutsedge plant response rating [9, 24]: 0
- Nutsedge plant response rating (0 to 10 scale) ([9]; Preemergence, Rate 250 g/ha): 0
- Nutsedge plant response rating [9, 20]: 0
- Plant response rating, Nutsedge [9, 25]: 0
- Corn plant response rating [10, 21]: 0
- Corn plant response rating [10, 22]: 0
- Plant response rating, Corn [10, 23]: 0
- Corn plant response rating [10, 26]: 0
- Corn plant response rating [10, 24]: 0
- Corn plant response rating (0 to 10 scale) ([10]; Preemergence, Rate 250 g/ha): 0
- Corn plant response rating [10, 20]: 0
- Plant response rating, Corn [10, 25]: 0
- Velvetleaf plant response rating [11, 21]: 0
- Velvetleaf plant response rating [11, 22]: 0
- Plant response rating, Velvetleaf [11, 23]: 0
- Velvetleaf plant response rating [11, 26]: 0
- Velvetleaf plant response rating [11, 24]: 0
- Velvetleaf plant response rating (0 to 10 scale) ([11]; Preemergence, Rate 250 g/ha): 0
- Velvetleaf plant response rating [11, 20]: 0
- Plant response rating, Velvetleaf [11, 25]: 0
- Sugarbeets plant response rating [12, 21]: 0
- Sugarbeets plant response rating [12, 22]: 0
- Plant response rating, Sugarbeets [12, 23]: 4
- Sugarbeets plant response rating [12, 26]: 0
- Sugarbeets plant response rating [12, 24]: 0
- Sugarbeets plant response rating (0 to 10 scale) ([12]; Preemergence, Rate 250 g/ha): 0
- Sugarbeets plant response rating [12, 20]: 2
- Plant response rating, Sugarbeets [12, 25]: 0
- Morningglory plant response rating [13, 21]: 0
- Morningglory plant response rating [13, 22]: 1
- Plant response rating, Morningglory [13, 23]: 3
- Morningglory plant response rating [13, 26]: 0
- Morningglory plant response rating [13, 24]: 0
- Morningglory plant response rating (0 to 10 scale) ([13]; Preemergence, Rate 250 g/ha): 0
- Morningglory plant response rating [13, 20]: 0
- Plant response rating, Morningglory [13, 25]: 1
- B. signalgrass plant response rating [14, 21]: 0
- B. signalgrass plant response rating [14, 22]: 0
- Plant response rating, B. signalgrass [14, 23]: 2
- B. signalgrass plant response rating [14, 26]: 0
- B. signalgrass plant response rating [14, 24]: 0
- B. signalgrass plant response rating (0 to 10 scale, 0 is no effect, 10 is complete control) ([14]; Preemergence, Rate 250 g/ha): 0
- B. signalgrass plant response rating [14, 20]: 5
- Plant response rating, B. signalgrass [14, 25]: 0
- Wheat plant response rating [15, 21]: 0
- Wheat plant response rating [15, 22]: 0
- Plant response rating, Wheat [15, 23]: 0
- Wheat plant response rating [15, 26]: 0
- Wheat plant response rating [15, 24]: 0
- Wheat plant response rating (0 to 10 scale) ([15]; Preemergence, Rate 250 g/ha): 3
- Wheat plant response rating [15, 20]: 3
- Plant response rating, Wheat [15, 25]: 0
- Bedstraw plant response rating [16, 21]: 0
- Plant response rating, Bedstraw [16, 23]: 5
- Bedstraw plant response rating [16, 26]: 0
- Bedstraw plant response rating [16, 24]: 0
- Bedstraw plant response rating (0 to 10 scale) ([16]; Preemergence, Rate 250 g/ha): 0
- Bedstraw plant response rating [16, 20]: 3
- Plant response rating, Bedstraw [16, 25]: 5
